In US4092350A, “Alkanoic acid, process for its production and method of use thereof” (priority 1975, dated 1978):
Where two headings read alike, the source gives them in different places.

How the values were obtained:
[1] = system: Carrageenin-Induced Paw Edema; experiment: Inhibition of Carrageenin-Induced Paw Edema; format: in vivo, male Donryu rats; conditions: Rattus norvegicus, rats, oral; for ED40: 3 h
Protocol: (§1) (a) Inhibition of Carrageenin-Induced Paw Edema
(§2) Following the method of C. […] The volume of the paw was measured before and 3 hours after the carrageenin injection. The swelling index of the inflamed paw was calculated as follows. [formula]
(§3) Inhibitory percentage was calculated as follows. [formula] (b) Inhibition of Intraperitoneal Dye Leakage

[2] = system: Intraperitoneal Dye Leakage; experiment: Inhibition of Intraperitoneal Dye Leakage; format: in vivo, male Donryu rats; conditions: Rattus norvegicus, 0.75 h, rats, oral
Protocol: as §3
(§4) Five minutes thereafter, 0.2 ml. / 100 g. body weight of 3% acetic acid was injected intraperitoneally. The dye in the peritoneal exudation, sampled 45 minutes after the acetic acid injection, was subjected to the spectro-photometric estimation at 620 mμ. Inhibitory percentage was calculated as follows. [formula]

Granuloma Formation [3] = experiment: Inhibition of Granuloma Formation by Granuloma Pouch Method; format: in vivo, male Wistar rats; conditions: Rattus norvegicus, 144 h; for ED20: read-out: ED20, Inhibition of Granuloma Formation by Granuloma Pouch Method
Protocol: (§5) (c) Inhibition of Granuloma Formation by Gramuloma Pouch Method
(§6) Thereafter, the compounds were administered orally. Beginning the next day, the compounds were administered orally at 9:00 a.m. and 4:00 p.m. for 6 days. The day after final administration, the granuloma pouches were removed and weighed. Inhibitory percentage was calculated as follows: [formula] (d) Acute Toxicity

in vivo = conditions: rats, oral, 7-day observation
Protocol: as §6
The compounds were administered orally in male Wistar rats weighing 200 ± 10 g. The rats were observed over a 7-day period.

[4] = Inhibition of Carrageenin-Induced Paw Edema; format: in vivo, male Donryu rats; conditions: rat, in vivo; rats, oral; ratio of LD50 to ED40; read-out: LD50/ED40, Carrageenin-Induced Paw Edema (safety margin)
Protocol: as §1, §2, §3

[5] = Inhibition of Intraperitoneal Dye Leakage; format: in vivo, male Donryu rats; conditions: rat, in vivo; rats, oral; ratio of LD50 to ED30; read-out: LD50/ED30, Intraperitoneal Dye Leakage (safety margin)
Protocol: as §3, §4

[6] = Inhibition of Granuloma Formation by Granuloma Pouch Method; format: in vivo, male Wistar rats; conditions: rat, in vivo; rats, oral; ratio of LD50 to ED20; read-out: LD50/ED20, Granuloma Pouch Method (safety margin)
Protocol: as §5, §6

[7] = Inhibition of Granuloma Formation by Cotton Pellet Method; format: in vivo, male Donryu rats; conditions: rat, in vivo; rats, oral; ratio of LD50 to ED20; read-out: LD50/ED20, Cotton Pellet Method (safety margin)
Protocol: (§7) (e) Inhibition of Granuloma Formation by Cotton Pellet Method
(§8) Following the method of C. […] Thereafter, the compounds were administered orally. Beginning the next day, the compounds were administered orally at 9:00 a.m. and 4:00 p.m. for 3 days. The day after final administration, the pellets were removed, dried and weighed to determine the weight of the granuloma formed around the pellets. Inhibitory percentage was calculated as follows: [formula] (f) Analgesic Activity by Acetylcholine-Induced Writhing Method in Mice

Granuloma Formation [8] = experiment: as above; format: in vivo, male Donryu rats; conditions: Rattus norvegicus, 72 h; rats, oral, twice daily for 3 days
Protocol: as §7, §8

[9] = system: Acetylcholine-Induced Writhing; experiment: Analgesic Activity by Acetylcholine-Induced Writhing Method in Mice; format: in vivo, male SLC-ICR mice; conditions: Mus musculus, oral, 60 minutes before acetylcholine
Protocol: Following the method of C. A. Winter, et al. (J. Pharmac. Exp., Ther., 141, 369 (1963)), in male Donryu rats weighing 130 ± 10 g., two sterilized cotton pellets weighing 35 ± 1 mg. respectively were embedded subcutaneously at the lateral abdomen aseptically. Thereafter, the compounds were administered orally. Beginning the next day, the compounds were administered orally at 9:00 a.m. and 4:00 p.m. for 3 days. The day after final administration, the pellets were removed, dried and weighed to determine the weight of the granuloma formed around the pellets. Inhibitory percentage was calculated as follows: [formula] (f) Analgesic Activity by Acetylcholine-Induced Writhing Method in Mice
Following the method of S. S. Adams (Arch. Int. Pharmacodyn., 178, 115 (1969)), in male SLC-ICR mice weighing 20 ± 1 g., the writhing response was caused by the intraperitoneal injection of 0.1 ml. / 10 g. body weight of 7.5 mg. / kg. acetylcholine dissolved in physiological saline. The test compounds were administered orally 60 minutes before the acetylcholine injection, after which the frequency of response was counted in each animal for 8 minutes. Inhibitory percentage was calculated as follows. [formula] Note; Compound A: 2-[4-(2-methyl-3-oxobutyl)phenyl]propionic acid, […]

[10] = po, read-out: Inhibition of Granuloma Formation by Granuloma Pouch Method, Inhibition (%)

| SMILES | inhibition at 3 mg/kg ([1]; 3 hours after carrageenin) [%] | inhibition at 2 mg/kg ([2]; 45 minutes after acetic acid) [%] | Acute Toxicity, Died/Treated (in vivo; 250 mg/kg) | ED40 [1] [mg/kg] | inhibition at 2 mg/kg ([1]; 3 hours after carrageenin) [%] | ED30 [2] [mg/kg] | inhibition at 0.5 mg/kg ([2]; 45 minutes after acetic acid) [%] | ED20 (Granuloma Formation [3]; po) [mg/kg] | Acute Toxicity, Died/Treated (in vivo; 125 mg/kg) | ED20 (Granuloma Formation [8]) [mg/kg] | ED50 [9] [mg/kg] | other results |
| --- | --- | --- | --- | --- | --- | --- | --- | --- | --- | --- | --- | --- |
| CC(C(=O)O)c1ccc(CC(C)C(C)O)cc1 (centres unmarked) [Compound B, 2-[4-(2-methyl-3-hydroxybutyl)phenyl]propionic acid] | 34.9 | 35.3 | 1/8 |  |  |  |  |  |  |  |  | inhibition at 6 mg/kg (Granuloma Formation [3]; rats, oral, 6 mg/kg, twice daily for 6 days): 24.2% |
| CCC(Cc1ccc(C(C)C(=O)O)cc1)C(C)O (centres unmarked) [Compound D, 2-[4-(2-ethyl-3-hydroxybutyl)phenyl]propionic acid] |  |  |  | 2.5 | 38.1 | 0.31 | 34.4 | 0.73 | 3/8 | 0.33 | 2.7 | selectivity ratio [4]: 52.8; selectivity ratio [5]: 426; selectivity ratio [6]: 181; inhibition at 1 mg/kg (Granuloma Formation [3]; [10]): 23.5%; LD50 at 168 h (in vivo; rat, in vivo, read-out: Acute Toxicity LD50): 132 mg/kg; selectivity ratio [7]: 400 |
| CC(=O)C(C)Cc1ccc(C(C)C(=O)O)cc1 (centres unmarked) [Compound A, 2-[4-(2-methyl-3-oxobutyl)phenyl]propionic acid] | 31.7 | 30.6 | 1/8 |  |  |  |  |  |  |  |  | inhibition at 8 mg/kg (Granuloma Formation [3]; rats, oral, 8 mg/kg, twice daily for 6 days): 22.3% |
| CC(C)Cc1ccc(C(C)C(=O)O)cc1 (centres unmarked) [Ibuprofen, reference compound] |  |  |  | 16 |  | 17 |  | 42 |  | 22 | 4.7 | inhibition at 10 mg/kg ([1]; 10 mg/kg, 3 hours after carrageenin): 31.2%; inhibition at 10 mg/kg ([2]; 10 mg/kg, 45 minutes after acetic acid): 17.8%; inhibition at 50 mg/kg (Granuloma Formation [3]; [10]): 21.1%; Acute Toxicity, Died/Treated (in vivo; 625 mg/kg): 3/8 |
| CCC(Cc1ccc(C(C)C(=O)O)cc1)C(C)=O (centres unmarked) [Compound C, 2-[4-(2-ethyl-3-oxobutyl)phenyl]propionic acid] |  |  |  |  | 35.2 |  | 28.2 |  | 2/8 |  |  | inhibition at 1 mg/kg (Granuloma Formation [3]; rats, oral, 1 mg/kg, twice daily for 6 days, read-out: Inhibition of Granuloma Formation by Granuloma Pouch Method, Inhibition (%)): 22.7% |
